The source of these data is patent US20260337229A1 (Seattle Children's Hospital (d/b/a Seattle Children's …, priority 2022, published 2026).

Data set [1] deals with T1, hOXTR (Homo sapiens, UniProt P30559).
T1 construct: expressed in transfected cells; host or cells: CHO (hOTR NFAT bLac)
T1 sequence (P30559 1-389): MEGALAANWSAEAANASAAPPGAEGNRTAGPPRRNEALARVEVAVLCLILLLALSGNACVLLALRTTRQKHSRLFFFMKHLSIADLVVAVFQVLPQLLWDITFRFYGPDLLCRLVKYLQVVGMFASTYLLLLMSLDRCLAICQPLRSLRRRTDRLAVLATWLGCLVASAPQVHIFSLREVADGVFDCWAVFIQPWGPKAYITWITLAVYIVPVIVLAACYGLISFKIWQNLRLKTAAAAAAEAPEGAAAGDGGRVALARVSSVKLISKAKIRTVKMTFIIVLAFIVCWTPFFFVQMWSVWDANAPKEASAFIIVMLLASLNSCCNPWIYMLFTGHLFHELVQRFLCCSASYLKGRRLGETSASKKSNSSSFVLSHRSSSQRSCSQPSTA
The data set can be described thus: Ca2+ flux fluorometric imaging plate reader assay at OXTR. The data set is classed as cell-based. The method, then: In a typical experimental protocol, stably transfected Chinese hamster ovary (CHO) hOTR NFAT bLac cells were plated at a density of 10,000 cells/well in a 384-well plate in growth medium (Dulbecco's modified Eagle's medium+Glutamax (Thermo Fisher Scientific, Waltham, MA), 10% dialyzed fetal bovine serum). The next day calcium-sensitive, fluo-4 dye (Invitrogen, Carlsbad, CA) and probenecid (Invitrogen; 2.5 mM) was dissolved in 20 ml warm dye loading buffer (Hanks' balanced salt solution with calcium and magnesium, 20 mM Hepes, pH 7.4) and added to each well. Plates were incubated for 60-120 minutes in a 37° C. cell incubator to allow cells to uptake the dye. […] After dye-loading, the cell plates were placed on the fluorometric imaging plate reader. A total of […] of test compound was added to the […] of dye on the cells, and intracellular Ca^2+ was monitored for 90 seconds. Intracellular Ca^2+ concentrations were calculated as the maximum increase over basal levels. Responses were normalized to control responses. Data were analyzed by curve fitting.
(In general: Calcium flux is commonly read through the fluorescence of an indicator in the cells.)

Data set [2] deals with T2, human V1a receptor (Homo sapiens, UniProt P37288).
T2 construct: expressed in transfected cells; host or cells: CHO
The data set can be described thus: Cytosolic Ca2+ mobilization agonist assay at human V1a receptor. The data set is classed as cell-based. To be noted: stably transfected CHO cells; read-out: hV1aR, EC50. On the procedure: The cells were suspended in DMEM buffer (Invitrogen, Carlsbad, CA) complemented with 0.1% FCSd, then distributed in microplates at a density of 4.5×10^4 cells/well. The fluorescent probe (Fluo4 Direct, Invitrogen, Carlsbad, CA) mixed with probenicid in HBSS buffer (Invitrogen, Carlsbad, CA) complemented with 20 mM HEPES (Invitrogen, Carlsbad, CA) (pH 7.4) was then added into each well and equilibrated with the cells for 60 min at 37° C. then 15 min at 22° C. The assay plates were positioned in a microplate reader (CellLux, PerkinElmer) followed by the addition of the test compound ASK2131, reference agonist or HBSS buffer (basal control), and the measurements of changes in fluorescence intensity which varies proportionally to the free cytosolic Ca^2+ ion concentration. For stimulated control measurements, AVP at 1 μM was added in separate assay wells. The results were expressed as a percent of the control response to 1 μM AVP. The standard reference agonist was AVP, which was tested in each experiment at several concentrations to generate a concentration-response curve from which its EC50 value was calculated.

Data set [3] has as its target T3, human V2 receptor (Homo sapiens, UniProt P30518).
T3 construct: expressed in transfected cells; host or cells: CHO
The data set can be described thus: cAMP production (HTRF) agonist assay at human V2 receptor. The data set is classed as cell-based. The settings on record: stably transfected CHO cells, read-out: hV2R, EC50. On the procedure: In Vitro Functional Assay measuring V2R Evaluation of the agonist activity of ASK2131 at the human V2 receptor expressed in stably transfected CHO cells was conducted by measuring its effects on cAMP production using the HTRF detection method. The cells were suspended in HBSS buffer (Invitrogen, Carsbad, CA) complemented with 20 mM HEPES (pH 7.4), 0.010% BSA and 500 μM IBMX, then distributed in microplates at a density of […] cells/well and incubated for 30 min at room temperature in the absence (control) or presence of the test compound or the reference agonist.
For stimulated control measurement, separate assay wells contained 1 nM AVP. Following incubation, the cells were lysed, and the fluorescence acceptor (D2-labeled cAMP) and fluorescence donor (anti-cAMP antibody labeled with europium cryptate) were added. After 60 min at room temperature, the fluorescence transfer was measured at γ ex=337 nm and γ em=620 and 665 nm using a microplate reader (Envision, Perkin Elmer). The cAMP concentration was determined by dividing the signal measured at 665 nm by that measured at 620 nm (ratio).
The results were expressed as a percent of the control response to 1 nM AVP. The standard reference agonist was AVP, which was tested in each experiment at several concentrations to generate a concentration-response curve from which its EC50 value was calculated.
In general terms: Changes in cAMP serve as a functional read-out for many G protein-coupled receptors.

A short description of data set [4]: Pharmacokinetics, iv, rat. The data set is classed as in vivo.
Description: Whole blood samples were immediately centrifuged at 4° C.; separated plasma (~100 μL) was pipetted into micro centrifuge tubes, flash frozen on dry ice, and stored at −80° C. Quantitative analysis plasma samples were performed by Alturas Analytics (Moscow, ID, USA) via peptide extraction from acidified plasma with acetonitrile followed by LC-MS/MS analysis.
A short description of data set [5]: 22-day long-term study in DIO rats (body weight, food and water intake). The data set is classed as in vivo, male Sprague Dawley rats. To be noted: in words. The source says: For studies utilizing a DIO rat model, male Sprague Dawley rats (CD-IGS rats, strain 001; approximately 4 weeks of age; 51-75 g) purchased from Charles River Laboratories (Wilmington, MA, USA). These rats were fed a diet of 60% calories from fat (Formula: D12492; Research Diets, Inc., New Brunswick, NJ, USA; 5.21 kcal/g) for 4.5 to 6 months prior to the start of the study to induce obesity. For studies utilizing lean rats, male Sprague Dawley rats (CD-IGS rats, strain 001; 226-250 g) purchased from Charles River Laboratories (Wilmington, MA, USA). All rats had ad libitum access to food and water and were kept on a 12 h light/12 h dark cycle. Animals were individually housed in a temperature (22±1° C.) and humidity (57±4%) controlled room. All body weight measurements were taken just prior to the start of the dark cycle.
(§1) Male Sprague Dawley rats were fed 60% HF diet (D12492; Research Diets, Inc; New Brunswick, NJ; 5.21 kcal/g) for 16 weeks prior to the start of the study. Rats were then singly house in BioDAQ cages (Research Diets, Inc.; New Brunswick, NJ) and allowed to acclimate to their new environment for 10 days. Baseline measures of body weight, food intake and water intake were taken for one week to balance the groups and create feeding pairs. Each group (n=6 animals/group) averaged 714.47±81.6 g at baseline (Table 3).
(§2) Effects of ASK2131 were compared to a vehicle-treated group, OXT-treated group, as well as a pair-fed control group. Three days of baseline measures were taken before subcutaneous treatment administration began on day 4 of the study. Assessments were made to body weight, food intake and water intake. ASK2131 was administered at 50 nmol/kg throughout the entire study period. […] OXT-treated animals were started at 50 nmol/kg dose for two days, followed by 150 nmol/kg, then 300 nmol/kg, until ending at 600 nmol/kg for the remainder of the study.

Data set [6] in a line: Blood parameters after 22-day treatment of DIO rats. The data set is classed as in vivo, male Sprague Dawley rats.
From the text: as §1, §2
Cardiac puncture was used to collect blood for analysis 2 h post final injection. Commercially available enzyme-linked immunosorbent assays (ELISA) were used for quantitative assessment of leptin (cat. #EZRL-83K; MilliporeSigma, Burlington, MA, USA), insulin (cat. #EZRMI-13K; MilliporeSigma, Burlington, MA, USA), and adiponectin (cat. #EZRAPD-62K MilliporeSigma, Burlington, MA, USA). Serum samples were diluted 1:500 for the adiponectin ELISA using the sample diluent provided with the kit. All ELISAs were completed following the manufacturers recommendations. Levels of glucose, cholesterol (total, HDL, and calculated LDL), triglycerides, ALT, and AST were determined in the serum on a Modular P chemistry analyzer (Roche Diagnostics, Risch-Rotkreuz, Switzerland) by the University of Washington Nutrition and Obesity Research Center's Analytic Core (Seattle, WA, USA).

Where [7] appears, read: serum 2 h post final injection, 22 days sc, mean ± SEM, OXT n=4.

Where two headings read alike, the source gives them in different places. Starred links: 1 amine or outer side, 2 acyl side, 3 side chain; linkers in the order of their positions; H or OH if unused. Positions of bridges follow the written chain, without caps; N, C: chain ends. Non-standard residues stand in square brackets, D forms with d. Residues, ends and D or L forms follow the SMILES beside them. Groups on a side chain read outwards from the residue. *: point of attachment. PEG8 = NCCOCCOCCOCCOCCOCCOCCOCCOCCC(=O)O; Palmitoyl = CCCCCCCCCCCCCCCC(=O)*; hCys = N[C@@H](CCS)C(=O)O; X1 = O=C(CC[*:2])[*:1]

T3 sequence (P30518 whole entry): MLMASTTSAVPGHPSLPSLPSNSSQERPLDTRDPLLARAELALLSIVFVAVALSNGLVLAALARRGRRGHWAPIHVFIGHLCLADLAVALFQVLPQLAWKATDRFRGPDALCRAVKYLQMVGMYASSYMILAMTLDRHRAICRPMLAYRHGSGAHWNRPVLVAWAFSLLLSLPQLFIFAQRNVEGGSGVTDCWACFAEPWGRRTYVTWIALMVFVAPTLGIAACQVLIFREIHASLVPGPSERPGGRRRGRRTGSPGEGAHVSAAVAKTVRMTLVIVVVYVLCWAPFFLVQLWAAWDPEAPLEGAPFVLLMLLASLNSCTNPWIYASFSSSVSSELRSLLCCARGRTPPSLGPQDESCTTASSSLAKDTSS
T2 sequence (P37288 whole entry): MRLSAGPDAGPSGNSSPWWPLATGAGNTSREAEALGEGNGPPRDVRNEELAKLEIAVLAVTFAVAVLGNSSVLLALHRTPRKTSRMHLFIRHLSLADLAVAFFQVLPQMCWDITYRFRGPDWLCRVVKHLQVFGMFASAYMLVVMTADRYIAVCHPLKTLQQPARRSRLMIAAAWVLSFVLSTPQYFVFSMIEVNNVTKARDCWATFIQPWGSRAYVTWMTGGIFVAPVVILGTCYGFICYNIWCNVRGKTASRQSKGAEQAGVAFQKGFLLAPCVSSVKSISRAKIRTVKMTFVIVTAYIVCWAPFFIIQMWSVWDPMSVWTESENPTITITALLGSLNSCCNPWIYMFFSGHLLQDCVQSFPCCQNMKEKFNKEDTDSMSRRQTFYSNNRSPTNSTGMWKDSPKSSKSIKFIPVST

With `CCCCCCCCCCCCCCCC(=O)NCCOCCOCCOCCOCCOCCOCCOCCOCCC(=O)NCCCC[C@H](NC(=O)CNC(=O)[C@@H]1CCSCCC(=O)N[C@@H](Cc2ccc(O)cc2)C(=O)N[C@@H]([C@@H](C)CC)C(=O)N[C@@H](CCC(N)=O)C(=O)N[C@@H](CC(N)=O)C(=O)N1)C(=O)NCC(N)=O` [ASK2131] (YIQN[hCys]GK([PEG8-Palmitoyl])G-NH2; linker N-5 via X1), the values for the concentration for a half-maximal effect (EC50) in data set [1], in data set [2] and in data set [3] were 1.1 nM, above 1000 nM and 0.36 nM, respectively. The “Ratio OXTR/V2R/” value in data set [1] (ratio of EC50 values) worked out at 3.06. Further, in data set [4], the T1/2 was 2.30 h. The Tmax was found to be 4.00 h in data set [4] and 4 h in data set [4] (plasma, read-out: Tmax). The “free Cmax” value in data set [4] (4 hours post-dose) was determined as 0.0005 µM. The half-life in data set [4] (plasma) was 2.3 h. The clearance in data set [4] (plasma, read-out: CLplasma) was 0.072 L/h/kg. Moreover, in data set [4] (plasma, read-out: Vd, steady-state volume of distribution), the Vd is 0.8 L/kg. Further, the Cmax at 4 h in data set [4] (total plasma concentration, 4 hours post-dose) worked out at 0.276 µM. Besides, in data set [5], the “adverse effects caused by the activation of V2R” value was “No adverse effects caused by the activation of V2R were observed”. Moreover, the “glucose, triglyceride, ALT, and AST levels” value in data set [6] (22 days, in words) is listed as “No significant differences”. Further, the ALT in data set [6] (setting [7]) was determined as 26 ± 2 U/L. The AST in data set [6] (setting [7]) was found to be 73 ± 8 U/L.

The EC50 is the midpoint of the concentration-response curve. By Tmax is commonly meant the time from dosing to the highest level. One may read the half-life as the time needed for the level to fall by half in the phase considered. The term Vd denotes a proportionality between amount in the body and measured concentration, not a real space. The term Cmax denotes the maximum level reached in the sampled fluid or tissue.
